Columns and labels:
Format in all cases: functional
SNB-19 = test: Growth inhibition of human SNB19 cells after 48 hrs by SRB assay; conditions: SNB-19, 48 h
HOP-62 = test: Growth inhibition of human HOP62 cells after 48 hrs by SRB assay; conditions: HOP-62, 48 h
HT-29 = test: Growth inhibition of human HT-29 cells after 48 hrs by SRB assay; conditions: HT-29, 48 h
HL-60(TB) = test: Growth inhibition of human HL-60(TB) cells after 48 hrs by SRB assay; conditions: HL-60, 48 h
SK-MEL-2 = test: Growth inhibition of human SK-MEL-2 cells after 48 hrs by SRB assay; conditions: SK-MEL-2, 48 h
[1] = Growth inhibition of human Hs 578T cells after 48 hrs by SRB assay
HCC 2998 = test: Growth inhibition of human HCC2998 cells after 48 hrs by SRB assay; conditions: HCC 2998, 48 h
[2] = Growth inhibition of human RPMI18226 cells after 48 hrs by SRB assay; conditions: RPMI18226, 48 h
SF-539 = test: Growth inhibition of human SF539 cells after 48 hrs by SRB assay; conditions: SF-539, 48 h
NCI-H460 = test: Growth inhibition of human NCI-H460 cells after 48 hrs by SRB assay; conditions: NCI-H460, 48 h
OVCAR-8 = test: Growth inhibition of human OVCAR8 cells after 48 hrs by SRB assay; conditions: OVCAR-8, 48 h
KM12 = test: Growth inhibition of human KM12 cells after 48 hrs by SRB assay; conditions: KM12, 48 h
CCRF-CEM = test: Growth inhibition of human CCRF-CEM cells after 48 hrs by SRB assay
MOLT-4 = test: Growth inhibition of human MOLT4 cells assessed as cell growth at 10^-5 M after 48 hrs by SRB assay; conditions: MOLT-4, 48 h, read-out: Activity
[3] = read-out: LC50 (the source's name)

Molecule `O=C(CO[N+](=O)[O-])Nc1ccc(C(=O)/C=C/c2ccc(Cl)cc2)cc1` has a GI50 (SNB-19) of 4.11 µM, a TGI (SNB-19) of 18.4 µM and a CC50 (SNB-19; [3]) of 64 µM. The GI50 (HOP-62) was 3.11 µM, the TGI (HOP-62) was 9.73 µM and the CC50 (HOP-62; [3]) was 34.6 µM. The GI50 (HT-29) was 2.36 µM, the TGI (HT-29) was 6.36 µM and the CC50 (HT-29; [3]) was over 100 µM. It also gave a GI50 (HL-60(TB)) of 3.59 µM, a TGI (HL-60(TB)) of over 100 µM and a CC50 (HL-60(TB); [3]) of over 100 µM. The GI50 (SK-MEL-2) was 9.69 µM, the TGI (SK-MEL-2) was 23.3 µM and the CC50 (SK-MEL-2; [3]) was 54.7 µM. For the same molecule, the GI50 [1] was 2.85 µM, the TGI [1] was 14.2 µM and the CC50 [1, 3] was over 100 µM. For the same molecule, the GI50 (HCC 2998) was 1.75 µM, the TGI (HCC 2998) was 3.64 µM and the CC50 (HCC 2998; [3]) was 7.57 µM. It also gave a GI50 [2] of 1.41 µM, a TGI [2] of 8.36 µM and a CC50 [2, 3] of over 100 µM. It also gave a GI50 (SF-539) of 2.52 µM, a TGI (SF-539) of 8.82 µM and a CC50 (SF-539; [3]) of 42.9 µM. For the same molecule, the GI50 (NCI-H460) was 12.7 µM, the TGI (NCI-H460) was 54.9 µM and the CC50 (NCI-H460; [3]) was over 100 µM. For the same molecule, the GI50 (OVCAR-8) was 3.24 µM, the TGI (OVCAR-8) was 14 µM and the CC50 (OVCAR-8; [3]) was 63 µM. It also gave a GI50 (KM12) of 1.54 µM, a TGI (KM12) of 3.1 µM and a CC50 (KM12; [3]) of 6.23 µM. It also gave a GI50 (CCRF-CEM) of 2.73 µM, a TGI (CCRF-CEM) of 16.5 µM and a CC50 (CCRF-CEM; [3]) of over 100 µM.

For `O=C(CO[N+](=O)[O-])Nc1ccc(C(=O)/C=C/c2ccc3c(c2)OCO3)cc1`, the growth at 10 µM (MOLT-4) was 99.7%.
